Where “and” joins values, the source holds several entries; their conditions need not be identical. Equal entries are not always repeated. Where two headings read alike, the source gives them in different places.
How the values were obtained:
[1] = test system: A2780; test: Modified MTT assay, A2780 (parental, MMR proficient); format: cell-based, human
Procedure: (§1) Relative drug sensitivities (Resistance Factor) and IC50 values were determined by a modified MTT assay (see, e.g., Mosmann, 1983; Plumb et al., 1989), as described below: • (1) Trypsinise a sub-confluent monolayer culture and collect cells in growth medium containing serum. Centrifuge the suspension (200 g, 5 minutes) to pellet cells, re-suspend in growth medium, and count cells. Dilute cells to a density of 5×10^3 cells/mL allowing 60 mL of cell suspension for 3 microtitre plates. Transfer cell suspension to a 10 cm petri dish, and with a multichannel pipette add 200 μL to each well of the central 10 columns of a flat bottomed 96-well plate (80 wells per plate) starting with column 2 and ending with column 11. Add 200 μL of growth medium to the 8 wells in columns 1 and 12. Put the plates in a plastic box and incubate in a humidified atmosphere at 37° C. for 2-3 days so that cells are in the exponential phase of growth for drug addition. • (2) Prepare a serial 5-fold dilution of the cytotoxic drug in growth medium to give 8 concentrations. Pipette 6 mL of growth medium in to each of 7 universal containers (30 mL). Prepare 10 mL of the highest concentration of the drug and transfer 1.5 mL of this solution to the first universal container. Mix and then transfer 1.5 mL to the next universal container. Continue until the seventh universal container is reached. The concentrations should be chosen so that the highest concentration kills most of the cells and the lowest kills none of the cells. Normally, three plates are used for each drug to give triplicate determinations within one experiment. • (3) The medium is removed from all the wells in columns 2 to 11. This can be achieved with a hypodermic needle attached to a suction line. Cells in the 8 wells in columns 2 and 11 are fed with 200 μL of fresh growth medium. The drug solutions are transferred to 10 cm petri dishes and 200 μL added to all 8 wells of a column. For ease of analysis arrange the drug solutions in order so that the highest is in column 3 down to the lowest in column 10. Plates are returned to the plastic box and incubated for 24 hours. • (4) At the end of the drug exposure period, the medium is removed from all wells containing cells and the cells are fed with 200 μL of fresh medium. • (5) The plates are fed daily for two more days. • (6) The plates are fed with 200 μL of fresh medium and 50 μL of the MTT solution (5 mg/mL in PBS) is added to all wells in columns 1 to 11. Plates are wrapped in aluminium foil and incubated for 4 hours in a humidified atmosphere at 37° C. • (7) The medium and MTT are then removed from the wells and the purple MTT-formazan crystals dissolved by addition of 200 μL of DMSO to all wells in columns 1 to 11. Glycine buffer is added (25 μL per well) to all wells containing DMSO. • (8) Absorbance is recorded at 570 nm with the wells in column 1, which contained medium and MTT but no cells used as a blank. • (9) A graph is plotted of absorbance (y-axis) against drug concentration (x-axis). The mean absorbance reading from the wells in columns 2 and 11 is used as the control absorbance and the IC50 concentration is determined as the drug concentration required to reduce the absorbance to half that of the control. IC10 or IC90 values can be determined in the same manner.
(§2) A2780/cp70 and A2780/mcp1 have lost expression of MLH1, have lost MMR activity, and have microsatellite instability compared to A2780. The CpG island at the MLH1 gene is methylated in A2780/cp70 and A2780/mcp1, but not A2780.
(§3) IC50 values (μM) for A2780, A2780/cp70, and A2780/mcp1 and Resistance Factors (RF) (the fold difference in resistance from parental A2780) were determined based on the MTT assay described above for several compounds of the present invention (including, e.g., MMR201).

[2] = test system: A2780/cp70; test: Modified MTT assay, A2780/cp70 (cisplatin resistant, MMR deficient); format: cell-based, human; conditions: 24 hour drug exposure; for IC50: MTT; for A2780/cp70 RF (Resistance Factor): fold difference in resistance from parental A2780
Procedure: as §1, §2, §3

[3] = test system: A2780/mcp1; test: Modified MTT assay, A2780/mcp1 (cisplatin resistant, MMR deficient); format: cell-based, human; conditions: 24 hour drug exposure; for IC50: MTT; for A2780/mcp1 RF (Resistance Factor): fold difference in resistance from parental A2780
Procedure: as §1, §2, §3

[4] = test system: A1 (MLH1+ve, MMR proficient); test: Modified MTT assay, A1 line (A2780/cp70 + chromosome 3, MLH1 +ve); format: cell-based, human
Procedure: as §1
A1, E1, and A2 are derived by transfer of human chromosome 3 into A2780/cp70. MLH1 is located on chromosome 3.
IC50 values (μM) for A1 (MLH1+ve, MMR proficient) or E1 (MLH1+ve, MMR proficient) and A2 (MLH1−ve, MMR deficient) lines and Resistance Factors (RF) (the fold difference in resistance between the A2 line, MMR deficient, and the A1 line, MMR proficient) were determined based on the MTT assay described above for several compounds of the present invention (including, e.g., MMR201). Compounds showing increased activity against the MLH1 deficient A2 line compared to the MLH1 proficient A1 or E1 line have RF values less than 1.

[5] = test system: COLO320DM; test: Modified MTT assay, colon panel COLO320DM; format: cell-based
Procedure: (§4) Relative drug sensitivities (Resistance Factor) and IC50 values were determined by a modified MTT assay (see, e.g., Mosmann, 1983; Plumb et al., 1989), as described below: • (1) Trypsinise a sub-confluent monolayer culture and collect cells in growth medium containing serum. Centrifuge the suspension (200 g, 5 minutes) to pellet cells, re-suspend in growth medium, and count cells. Dilute cells to a density of 5×10^3 cells/mL allowing 60 mL of cell suspension for 3 microtitre plates. Transfer cell suspension to a 10 cm petri dish, and with a multichannel pipette add 200 μL to each well of the central 10 columns of a flat bottomed 96-well plate (80 wells per plate) starting with column 2 and ending with column 11. Add 200 μL of growth medium to the 8 wells in columns 1 and 12. […] Glycine buffer is added (25 μL per well) to all wells containing DMSO. • (8) Absorbance is recorded at 570 nm with the wells in column 1, which contained medium and MTT but no cells used as a blank. • (9) A graph is plotted of absorbance (y-axis) against drug concentration (x-axis). The mean absorbance reading from the wells in columns 2 and 11 is used as the control absorbance and the IC50 concentration is determined as the drug concentration required to reduce the absorbance to half that of the control. IC10 or IC90 values can be determined in the same manner. […]

[6] = test system: HT29; test: Modified MTT assay, colon panel HT29; format: cell-based
Procedure: as §4

[7] = test system: RKO (MLH1); test: Modified MTT assay, colon panel RKO; format: cell-based
Procedure: as §4

[8] = test system: BE; test: Modified MTT assay, colon panel BE; format: cell-based
Procedure: as §4

[9] = test system: OVCAR3; test: Cancer cell line panel, OVCAR3 (ovary); format: cell-based
Procedure: as §4

[10] = test system: OVCAR5; test: Cancer cell line panel, OVCAR5 (ovary); format: cell-based
Procedure: as §4

[11] = test system: MCF7; test: Cancer cell line panel, MCF7 (breast); format: cell-based
Procedure: as §4

[12] = test system: A549; test: Cancer cell line panel, A549 (NSCLC); format: cell-based
Procedure: as §4

[13] = test system: H125; test: Cancer cell line panel, H125 (NSCLC); format: cell-based
Procedure: as §4

[14] = test system: HS852; test: Cancer cell line panel, HS852 (melanoma); format: cell-based
Procedure: as §4

[15] = test system: A375; test: Cancer cell line panel, A375 (melanoma); format: cell-based
Procedure: as §4

[16] = test system: C8161; test: Cancer cell line panel, C8161 (melanoma); format: cell-based
Procedure: as §4

[17] = test system: DU145; test: Cancer cell line panel, DU145 (prostate); format: cell-based
Procedure: as §4

[18] = read-out: Cisplatin IC50, MMR proficient, p53 mut

N.N.[Cl][Pt][Cl] [Cisplatin, reference compound]
IC50 ([1]; 24 hour drug exposure): 0.215 µM and 0.244 µM
IC50 [2]: 1.74 µM and 1.68 µM
A2780/cp70 RF (Resistance Factor) [2]: 8.1 and 6.9
IC50 [3]: 0.547 µM and 0.672 µM
A2780/mcp1 RF (Resistance Factor) [3]: 2.5 and 2.8
IC50 ([4]; read-out: A1 or E1 MLH1 +ve MMR proficient IC50): 0.715 ± 0.069 µM
IC50 [5, 18]: 2.9 ± 0.29 µM
IC50 [6, 18]: 5.67 ± 0.64 µM
IC50 ([7]; read-out: Cisplatin IC50, MMR deficient): 4.01 ± 0.1 µM
IC50 ([8]; read-out: Cisplatin IC50, MMR status unknown, p53 ?): 8.67 ± 1.42 µM
IC50 ([9]; read-out: Cisplatin): 0.239 ± 0.02 µM
IC50 ([10]; read-out: Cisplatin): 1.78 ± 0.1 µM
IC50 ([11]; read-out: Cisplatin): 1.78 ± 0.17 µM
IC50 ([12]; read-out: Cisplatin): 1.13 ± 0.04 µM
IC50 ([13]; read-out: Cisplatin): 3.69 ± 0.43 µM
IC50 ([14]; read-out: Cisplatin): 1.6 ± 0.09 µM
IC50 ([15]; read-out: Cisplatin): 0.613 ± 0.051 µM
IC50 ([16]; read-out: Cisplatin): 3.46 ± 0.16 µM
IC50 ([17]; read-out: Cisplatin): 1.68 ± 0.04 µM

CC[n+]1c(/C=C2\Sc3oc4ccccc4c3N2C)ccc2cc(C)ccc21.[I-] [MMR201]
IC50 ([1]; Homo sapiens, A2780, 24 hour drug exposure): 0.058 ± 0.005 µM
IC50 ([2]; Homo sapiens, A2780/CP70): 0.017 ± 0.001 µM
A2780/cp70 RF (Resistance Factor) [2]: 0.29
IC50 ([3]; Homo sapiens, A2780/mcp1): 0.014 ± 0.001 µM
A2780/mcp1 RF (Resistance Factor) [3]: 0.24
IC50 ([4]; Homo sapiens, A2780/CP70, read-out: A1 or E1 MLH1 +ve MMR proficient IC50): 0.121 ± 0.018 µM
IC50 ([5]; Homo sapiens, COLO 320DM, MMR proficient, p53 mut, read-out: MMR201 IC50): 0.594 ± 0.0285 µM
IC50 ([6]; Homo sapiens, HT-29, MMR proficient, p53 mut, read-out: MMR201 IC50): 0.118 ± 0.0091 µM
IC50 ([7]; MMR deficient, read-out: MMR201 IC50): 0.0272 ± 0.0007 µM
IC50 ([8]; MMR status unknown, p53 ?, read-out: MMR201 IC50): 0.125 ± 0.0173 µM
IC50 ([9]; Homo sapiens, OVCAR-3, read-out: MMR201): 0.253 ± 0.022 µM
IC50 ([10]; Homo sapiens, OVCAR-5, read-out: MMR201): 0.699 ± 0.0546 µM
IC50 ([11]; Homo sapiens, read-out: MMR201): 0.87 ± 0.0548 µM
IC50 ([12]; Homo sapiens, read-out: MMR201): 0.119 ± 0.0106 µM
IC50 ([13]; Homo sapiens, NCI-H125, read-out: MMR201): 0.13 ± 0.015 µM
IC50 ([14]; read-out: MMR201): 0.0753 ± 0.0071 µM
IC50 ([15]; Homo sapiens, A-375, read-out: MMR201): 0.118 ± 0.0177 µM
IC50 ([16]; Homo sapiens, read-out: MMR201): 0.2542 ± 0.0004 µM
IC50 ([17]; Homo sapiens, DU-145, read-out: MMR201): 0.328 ± 0.0078 µM

Reference: US20090247579A1, “2-[3H-THIAZOL-2-YLIDINEMETHYL]PYRIDINES AND RELATED COMPOUNDS AND THEIR USE” (CANCER RESEARCH TECHNOLOGY LIMITED, priority 2006, published 2009)
